{"source": "patent US10365268B2", "about": "“Methods for identifying modulators of membrane potentials in bipolar disorder and attention deficit hyperactivity disorder” (PsychNostics, LLC, priority 2011, dated 2019)", "key": {"RBC": {"test_system": "RBC", "experiment": "membrane potential ratio (MPR) test: agent added to K+-free, EtOH-containing test buffer versus reference buffer", "type": "cell-based, human", "settings": "for EtOH effect (hSK4 opening / hyperpolarization): hSK4 blockers added to the test buffer", "excerpt": "It is essential to understand these differences so that the underlying pathophysiology of these disorders is better understood leading to better diagnostic markers and drug targets. […] Membrane potential ratio (MPR™) is the ratio between the membrane potential in the test buffer and that in the reference buffer. The reference buffer contains NaCl, CaCl2, glucose and Hepes whereas the test buffer contains ethyl alcohol (EtOH) in addition to these compounds. […] The role of the absence of K^+ ions in the buffer on membrane potential and the addition of EtOH needs to be understood in order to explain their effects.\nThe assay uses a reference buffer or regular buffer and a test buffer. The “reference buffer” or “regular buffer” contains only Na^+, Ca^2+, and HEPES without any other reagents. The “test buffer” containing no potassium (K^+-free buffer) is a HEPES buffer without potassium (4 mM NaHCO3, 5 mM HEPES, 134 mM NaCl, 2.3 mM CaCl2, and 5 mM glucose) and with a K^+ channel altering agent, at a pH of 6.8 (range of 6.6 to 7.0). The test buffer may also contain 30 μM ethacrynic acid dissolved in EtOH as solvent.\nIn order to verify the CAK channel is involved in the membrane potential of the RBC used for the membrane potential ratios (MPR™) tests, the CAK channel blockers, quinine and clotrimazole were added to the test buffer and the membrane potential ratios (MPR™) was determined. The membrane potential ratios (MPR™) values are shown in box plots. […] Similarly boxes 3, 4 and 5 show the results for clotrimazole (CLTX). Box 3 represents no CLTX, while box 4 for 2.5 micro molar CLTX and box 5 for 5 micro molar concentrations in the test buffer.\nBlood samples from a patient were suspended in a reference buffer (reference buffer sample) as well as in a test buffer (test buffer sample) with 3,3′-dihexyloxacarbocyanine iodide (DiOC6) dye, incubated, spun, drained and the […] resuspended in their respective buffers without the dye. The resuspended buffer samples were then distributed in three separate 96 well plates and tested in a Plate Reader for fluorescence intensity. The Plate Reader recorded a data matrix of each of the 96 well plates and the data matrix was transferred to a Template to calculate the ratio between the test buffer sample and the corresponding reference buffer sample. The resulting ratios were calculated to determine the mean value, the standard deviation and the coefficient of variation. This procedure was repeated two more times and the resulting mean value, standard deviation and the coefficient of variation calculated in the same manner. The Membrane Potential Ratio (MPR™) obtained from the mean values was 0.781 (with a standard deviation of 0.014 and coefficient of variation of 1.76). Based on the MPR™ value of 0.781, the patient was diagnosed to have ADHD (with a greater than 97% probability)."}, "[1]": {"test_system": "calmodulin-dependent protein kinase II (CaM-kinase II)", "settings": "Ishida et al. 1995; cited from earlier work"}, "diacylglycerol kinase": {"test_system": "diacylglycerol kinase", "settings": "human red blood cell membranes; de Courcelles et al. 1985; cited from earlier work"}, "[2]": {"settings": "CAK channel blockers added to the test buffer (quinine 1 mM; CLTX 2.5 and 5 micro molar), FIG. 2"}}, "note": "Entries after “also recorded” stand apart in the source; their conditions may differ.", "data": [{"compound": "CCCCCCCCCCCCCC(=O)O[C@@H]1[C@@H](C)[C@@]2(O)[C@@H](C=C(CO)C[C@]3(O)C(=O)C(C)=C[C@@H]23)[C@@H]2C(C)(C)[C@]12OC(C)=O", "note": "[PMA, phorbol 12-myristate 13-acetate]", "values": [{"measurement": "effect on membrane potential ratio (MPR) / cell polarization", "setting": "RBC; 2.5 μM in the test buffer versus without PMA, FIG. 4", "result": "depolarizes the cells very effectively"}]}, {"compound": "Nc1ncnc2c1nc(Sc1ccc(Cl)cc1)n2[C@@H]1O[C@@H]2COP(=O)(O)O[C@H]2[C@H]1O", "note": "[8-CPT, 8-CPT-cAMP]", "values": [{"measurement": "effect on membrane potential ratio (MPR) / membrane potentials", "setting": "RBC; 50 μM in the test buffer, FIG. 3", "result": "did not have any effect; also recorded: no effect"}]}, {"compound": "autocamtide-2-related inhibitory peptide [AIP]", "values": [{"measurement": "inhibition of CaM-kinase II", "setting": "[1]", "result": "highly specific and potent inhibitor"}, {"measurement": "effect on membrane potential", "setting": "RBC; 5 μM concentration, FIG. 6", "result": "depolarizes the membrane potential robustly"}]}, {"compound": "CN[C@@H]1C[C@H]2O[C@@](C)([C@@H]1OC)n1c3ccccc3c3c4c(c5c6ccccc6n2c5c31)C(=O)NC4", "note": "[Staurosporine, staurosporine]", "values": [{"measurement": "effect on membrane potentials", "setting": "RBC; three concentrations (250 nM, 500 nM and 750 nM) in the test buffer, FIG. 5", "result": "hyperpolarizes the membrane potentials very effectively"}, {"measurement": "effect on membrane potentials", "setting": "RBC; three concentrations (250 nM, 500 nM and 750 nM) in the test buffer, FIG. 5, listed as staurosporine", "result": "hyperpolarizes the membrane potential in a concentration dependent manner"}]}, {"compound": "C=C[C@H]1C[N@@]2CC[C@H]1C[C@H]2[C@H](O)c1ccnc2ccc(OC)cc12", "note": "[quinine]", "values": [{"measurement": "membrane potential ratio (MPR) values", "setting": "RBC; 1 mM quinine in the test buffer compared to test buffer without quinine, FIG. 2", "result": "increased"}, {"measurement": "effect on membrane potentials", "setting": "RBC; [2]", "result": "depolarized the membrane potentials robustly"}, {"measurement": "EtOH effect (hSK4 opening / hyperpolarization)", "setting": "RBC; FIG. 2", "result": "blocked"}]}, {"compound": "Clc1ccccc1C(c1ccccc1)(c1ccccc1)n1ccnc1", "note": "[clotrimazole]", "values": [{"measurement": "effect on membrane potentials", "setting": "RBC; [2]", "result": "depolarized the membrane potentials robustly"}, {"measurement": "EtOH effect (hSK4 opening / hyperpolarization)", "setting": "RBC; FIG. 2", "result": "blocked"}]}, {"compound": "Cc1nc2sccn2c(=O)c1CCN1CCC(=C(c2ccccc2)c2ccc(F)cc2)CC1", "note": "[ALX, 6-[2-[4-[(4-fluorophenyl)phenylmethylene]-1-piperidinyl]ethyl]-7-methyl-5H-thiazolo[3,2-a]pyrimidin-5-one]", "values": [{"measurement": "effect on membrane potential", "setting": "RBC; three concentrations 2.5 μl, 5 μl and 7.5 μl, FIG. 7", "result": "depolarizes the membrane potential"}, {"measurement": "inhibition of diacylglycerol kinase", "setting": "diacylglycerol kinase", "result": "found to inhibit diacylglycerol kinase"}]}]}
